The values that follow come from publication PMC10287183 (Antiviral Research, 2023).

Where two headings read alike, the source gives them in different places. Bounds are passed on as bounds.

Usually EC90 stands for the point of the concentration-response curve where the effect stands at 90%.

In one data set the test system is SARS-CoV2 D614G. Format: cell-based, SARS-CoV-2. Particulars: for EC90: read-out: EC90 (mean ± SD).
The nature of a further data set: in vitro. Particulars: human.
A further data set relates to SARS-CoV-2 D614G. Format: cell-based.

For `CCN(CCO)CCCC(C)Nc1ccnc2cc(Cl)ccc12` (centres unmarked) [Hydroxychloroquin, Hydroxychloroquine], in the data set on SARS-CoV2 D614G, the “Highest % of Virus Inhibition” value turned out to be 98% and the EC90 was 18.9 ± 2.3 µM. In “in vitro”, the CC50 was > 100 µM.
On to `O=[N+]([O-])c1ccc(O)c2ncccc12` [Nitroxoline, nitroxoline], for which the 90% effect concentration (EC90) in the data set on SARS-CoV2 D614G amounted to 9.9 ± 8 µM. For the same compound, the virus entry step entry in the data set with SARS-CoV-2 D614G is given as “inhibited this step similarly to HCQ”. Further, the CC50 in the data set “in vitro” was > 100 µM.
As to CLIK-148 [CLIK 148], the “Highest % of Virus Inhibition” value in the data set on SARS-CoV2 D614G ([…], highest concentration tested 100 μM (CLIK-148 60 μM)) came out at 64%. In the data set on Huh7-hACE2, the CC50 is > 100 µM.
